These results are taken from patent publication US5705662A, “17-(3-imino-2-alkylpropenyl)-5β, 14β-androstane derivatives active on the cardiovascular system, processes for their preparation and pharmaceutical compositions containing same” (Sigma-Tau Industrie Farmaceutiche Riunite S.p.A., priority 1994, dated 1998).

SMILES strings stand for the structures.

For assay [1], the target named is T1, Na^+,K^+ -ATPase (Canis lupus familiaris, UniProt P50997).
T1 construct: Na^+,K^+ -ATPase receptor purified according to Jorghensen; from tissue
As to the kind of experiment: displacement of the specific 3H-ouabain binding from the purified Na+,K+-ATPase receptor. From the text: (§1) To test the affinity for the receptor site of the Na^+,K^+ -ATPase and the agonist or antagonist activity on the enzyme, the following tests were used:
a) displacement of the specific ^3 H-ouabain binding from the Na^+,K^+ -ATPase receptor purified according to Jorghensen (Jorghensen P., BBA. 1974, 356, 36) and Erdmann (Erdmann E. et al., Arzneim. Forsh., 1984, 34, 1314);

Assay [2] is described as follows: effect of 5 week-treatment on the development of hypertension in MHS rats (SBP and HR, tail cuff method). It is filed as in vivo, rat (MHS). The following applies: 10 mg/Kg/os daily in Methocel 0.5% w/v, 5 weeks, controls 375 +/- 7.3. Here is the method: (§2) Systolic blood pressure (SBP) and heart rate (HR) were measured. by the tail cuff method, in young prehypertensive male rats (MHS or SHR) strains before the development of hypertension (4 weeks of age) for recording the basal values of SBP. Groups of 7 rats were formed and subdivided in control and treated groups. The compound, suspended in Methocel 0.5 % (w/v). was orally given daily for at least 5 weeks to the treated groups. The control group received only Methocel.
(§3) SBP and HR were measured weekly 6 and 24 hrs after treatment. After 5 weeks of treatment, when hypertension was fully developed in the control group (9 weeks of age), washout was started for at least one week, to verify whether the treatment maintained blood pressure low or reestablished the basal values. […] (Takeda K. et al., Japan J. Pharmacol., 1979, 29,171: Takeda K. et al. Japan J. Pharmacol., 1982, 32, 283; Richer C. et al. Eur. J. Pharmacol, 1978, 47,393).

The subject of assay [3] is spontaneous hypertensive rats (MHS). The description is as above. To be noted: 10 mg/Kg/os daily in Methocel 0.5% w/v, 5 weeks, controls 171 +/- 4.5. Format: in vivo, rat (MHS). The method, then:
as §2, §3

Assay [4] has as its target T1, Na^+,K^+ -ATPase. Nature of the assay: inhibition of the activity of the purified Na+,K+-ATPase (% hydrolysis of 32P-ATP). Format: biochemical.
Source text: as §1
b) inhibition of the activity of the purified Na^+,K^+ -ATPase measured as % of hydrolysis of ^32 P-ATP in presence and in absence of the tested compound (Doucet A. et al. Am. J. Physiol., 1986, 251, F851)

The conditions of assay [5]: J. Med. Chem. 1978, 21, 284; Quant. Struct.-Act. Relat. 1988, 7, 160; cited from earlier work.
For assay [6], the system named is Na^+,K^+ -ATPase. To be noted: J. Med. Chem. 1978, 21, 284; Quant. Struct.-Act. Relat. 1988, 7, 160; DE 4,227,605; DE 4,227,626; cited from earlier work.
The mark [7] stands for this setting: 3H-ouabain displacement, purified Na+,K+-ATPase, read-out: Binding ^3 H-Ouab. Displacement log IC50 (converted).
The mark [8] stands for this setting: purified Na+,K+-ATPase, 32P-ATP hydrolysis, read-out: Inhibitory Activity log IC50 (converted).

Take `CC(/C=N/NC(=N)N)=C\[C@H]1CC[C@]2(O)[C@@H]3CC[C@@H]4C[C@@H](O)CC[C@]4(C)[C@H]3CC[C@]12C` [Comp. I-aa, (E,E)-17β-(3-Guanidinoimino-2-methyl-1-propenyl)-5β-androstane-3β,14β-diol]: the figures for the half-inhibitory concentration (IC50) at Na^+,K^+ -ATPase [1] (setting [7]) and at Na^+,K^+ -ATPase [4] (setting [8]) were 31.6 nM and 251 nM, respectively. In assay [2], the HR is 374 +/- 9.5 beats/min. Further, in assay [3], the SBP was 148 +/- 5.7 mm Hg.
On to `CC(/C=N/OCCN)=C\[C@H]1CC[C@]2(O)[C@@H]3CC[C@@H]4C[C@@H](O)CC[C@]4(C)[C@H]3CC[C@]12C` [Comp. I-af, (E,E)-17β-[3-(2-Aminoethoxyimino)-2-methyl-1-propenyl]-5β-androstone-3β,14β-diol], for which the figures for the IC50 on Na^+,K^+ -ATPase [1] (setting [7]) and on Na^+,K^+ -ATPase [4] (setting [8]) were 20 nM and 31.6 nM, respectively. Further, in assay [2], the HR was 380 +/- 3.9 beats/min. For the same compound, the SBP in assay [3] is 146 +/- 6.1 mm Hg.
Turning to `C[C@]12CC[C@H](O)C[C@H]1CC[C@@H]1[C@@H]2CC[C@]2(C)[C@@H](C=NNC(=N)N)CC[C@]12O` [17β-guanidinoiminomethyl-5β-androstane-3β,14β-diol], the “positive inotropic activity (in words)” value in assay [5] is “weak positive inotropic agents”. Besides, in the assay on Na^+,K^+ -ATPase [6], the “inhibition of Na+,K+-ATPase (in words)” value is given as “weak inhibitors of Na^+,K^+ -ATPase”.
As to `C[C@]12CC[C@H](O)C[C@H]1CC[C@@H]1[C@@H]2CC[C@]2(C)C(=NNC(=N)N)CC[C@]12O` [17-guanidinoimino-5β-androstane-3β,14β-diol], the “positive inotropic activity (in words)” value in assay [5] is reported as “weak positive inotropic agents”. The “inhibition of Na+,K+-ATPase (in words)” value in the assay on Na^+,K^+ -ATPase [6] is given as “weak inhibitors of Na^+,K^+ -ATPase”.
As for `CC(/C=N/OCCN)=C\[C@H]1CC[C@]2(O)[C@@H]3CC[C@@H]4C[C@H](OCCCN)CC[C@]4(C)[C@H]3CC[C@]12C` [Comp. I-be, (E,E)-3α-(3-Aminopropoxy)-17β-[3-(2-aminoethoxyimino)-2-methyl-1-propenyl]-5β-androstane-14β-ol], the IC50 on Na^+,K^+ -ATPase [1] was 631 nM; at Na^+,K^+ -ATPase [4] it was 3980 nM.
